Data taken from article PMC8766756, “Insights on Cancer Cell Inhibition, Subcellular Activities, and Kinase Profile of Phenylacetamides Pending 1H-Imidazol-5-One Variants” (Frontiers in Pharmacology, 2022).
“Also recorded” adds a separate entry of the source.

Columns and labels:
[1] = Stability in human liver microsomes; assay type: in vitro ADME; settings: 37°C, t1/2
Description: The clearance of KIM-161 in MLM or HLM was determined at 37°C as previously described ([Yang et al., 2007]). Both MLM and HLM were obtained from Merck KGaA (Darmstadt, Germany), Cat. No. M9441 (MLM) and M0317 (HLM). The assays were conducted in triplicate in 96-well deep polypropylene plates. KIM-161 was incubated with pooled liver microsomes from male CD-1 mice (Life Technologies, Grand Island, NY), tetrasodium NADPH and magnesium chloride for 60 min at 37°C with gentle shaking. At five time points, the reaction mixture aliquots were transferred to 96-shallow well stop plates on ice containing acetonitrile with 0.1 µM propafenone. […] The standard curves for the test compound were generated using five concentrations in triplicate that were processed as above but with zero incubation time. The stop plates were centrifuged at 2000g for 10 min, and then, the supernatant aliquots were transferred to a Waters Aquity® UPLC 700 µL 96-well sample plate with cap mat (Waters, Milford, MA). The amount of the compound remaining in the supernatant was quantified by LC/MS/MS using a Waters Xevo TQ MS (electrospray positive mode) coupled to a Waters Aquity® UPLC (BEH column, C18). Propafenone was used as the internal standard. GraphPad® Prism v.5.04 was used for nonlinear fitting of time course data to generate t1/2 values.

[2] = Stability in mouse plasma; assay type: in vitro ADME; settings: 1 µM, t1/2; listed as KIM-161
Description: The assay was conducted at 37°C in triplicate. The test compound KIM-161 or procaine (the positive control) was tested at a final concentration of 1 µM in either 2.5% DMSO/CD-1 mouse plasma (Innovative Research, Novi, MI; sodium heparin added as anticoagulant; pH adjusted to 7.4 with 2N HCl on the day of use) or 2.5% DMSO/PBS (pH 7.4; 136.9 mM NaCl, 2.68 mM KCl, 8.1 mM Na2HPO4, 1.47 mM KH2PO4, 0.9 mM CaCl2, and 0.49 mM MgCl2). At seven time points, the reaction mixture aliquots were transferred to 96-shallow-well stop plates on ice containing acetonitrile with 0.1 µM propafenone. Samples were analyzed by LC/MS/MS on a Waters Xevo TQ instrument as described above using positive electrospray ionization. The assay acceptance criterion was 20% for all standards and 25% for the LLOQ. GraphPad® Prism v.5.04 was used for nonlinear fitting of data to generate t1/2 values.

[3] = Reactivity with GSH (LC/MS); assay type: physicochemical; settings: 37°C
Source text: Because KIM-161 contains α,β-enone moiety, it was investigated for its reactivity with glutathione (GSH), an important cellular component for maintaining the desired redox balance ([Aquilano et al., 2014]).
GSH and solvents were purchased from Sigma-Aldrich. The LC/MS system is composed of an Agilent 1200 HPLC system, a solvent delivery module, a quaternary pump, an autosampler, and a column compartment (Agilent Technology, Germany). The column effluent was connected to an Agilent 6320 Ion Trap-ESI-MS. The column heater was set to 25 ± 2°C. The control of the HPLC system and data processing were performed using ChemStation (Rev. B.01.03 SR2-204) and 6300 Series Trap Control version 6.2 Build No. 62.24 (Bruker Daltonik GmbH). The analytes were separated using an Agilent Zorbax Extend-C18 column (80Å, 150 mm length × 4.6 mm, i.d., 5 μm) and Agilent-Zorbax Extend-C18 pre-column (Agilent Technologies, Palo Alto, CA, USA). The general MS adjustments were set as follows: capillary voltage, 4000 V; nebulizer, 35 psi; drying gas, 12 L/min; desolvation temperature, 350°C; ion charge control smart target, 150,000; and max. accumulation time, 150 ms. The Auto-MSn positive mode was applied. The mobile system was isocratic elution using 55% acetonitrile and 45% water containing 0.1% formic acid (w/v). […]

Structure (SMILES): COc1ccc(/C=C2\N=C(C)N(c3ccc(CC(=O)NCc4ccccc4)cc3)C2=O)cc1 [Compound 4c, (Z)-N-Benzyl-2-(4-(4-(4-methoxybenzylidene)-2-methyl-5-oxo-4,5-dihydro-1H-imidazol-1-yl)phenyl)acetamide]
- HLM stability [1]: 22.9 min
- Stability in mouse plasma at 37°C [2]: >300 min
- Reactivity with GSH ([3]; pH 7.5, up to 48 h, LC/MS, listed as KIM-161): did not show any significant reaction with GSH; also recorded: could not react with GSH; also recorded: No reaction
- unreacted compound (UV spectrum) ([3]; after 48 h with GSH): > 98%
